Data set [1] in a line: in vivo. As to conditions: rat, iv, 30 mg/kg. On the procedure: Blood samples (≈220 ul) were collected into heparinized tubes containing 20 μl Sigma protease inhibitor cocktail for mammalian tissues diluted at a 1:9 ratio in 0.1 M PBS (pH=7). The samples were collected at 20, 10 and 0 min before and 1, 2, 4, 8, 16, 32 and 64 min after injection. […] The samples were centrifuged at 3000× g for 15 min at 4° C. and the plasma removed and stored at −80° C. until extraction and assay.

The conditions of data set [2]: rat, in vivo, iv, 3 mg/kg.
Description: (§1) The ED-50 was 195 pg/tube, and the limit of detection was 2 pg/ml. The intra-assay CV was <10% over the range 0.5 to 25 ng/ml. Any samples reading off the standard curve were further diluted before being re-assayed.
A short description of data set [3]: in vivo. As to conditions: rat, iv, 3 mg/kg.
Description: as §1

A value given as a limit tells only on which side of the number the result lay.

On to `NCC(=O)N1CCC[C@H]1C(=O)N[C@@H](CCC(=O)O)C(=O)O` [GPE, glycine-proline-glutamate], for which, in data set [1], the “Pro-Glu in plasma by HPLC” value is listed as “could not be identified” and the level at 1 min is 33000 ng/mL. Also, the “time for plasma GPE to decline back to baseline values” in data set [2] is on record as at most 8 min. The same molecule came in with a level at 8 min in data set [3] of 9.8 ± 1.33 ng/mL.

Values taken from US20070224165A1, “Neuroprotective Effects of Gly-Pro-Glu Following Intravenous Infusion” (Neuren Pharmaceuticals Limited, priority 2003, published 2007).
